Measurements as given in US4551547A, “Biocidal 2-aryl-1, 3-cyclopentanedione enol ester compounds” (Union Carbide Corporation, priority 1983, dated 1985).

Experiments:
Cotton = experiment: Post-emergent herbicidal test, cotton; format: in vivo; set-up: key: 1: no perceptible injury; 2: intermediate degrees of injury; 3: intermediate degrees of injury; 4: intermediate degrees of injury; 5: the plant was dead; settings: Table II; 2500 parts per million, after ten days
How it was run: (§1)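 Compounds dispersed in acetone/surfactant/water and sprayed at 2500 ppm onto foliage of healthy plants. Plants kept in greenhouse; foliar injury scored visually after ten days on a 1 (no injury) to 5 (dead) scale.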

Soybean = experiment: Post-emergent herbicidal test, soybean; format: in vivo; set-up: key: 1: no perceptible injury; 2: intermediate degrees of injury; 3: intermediate degrees of injury; 4: intermediate degrees of injury; 5: the plant was dead; settings: Table II; 2500 parts per million, after ten days
How it was run: as §1

Perennial rye grass = experiment: Preliminary herbicide seed germination test (pre-emergent), perennial rye grass; format: in vivo, Solium perenne; set-up: key: 5: no seedling emerged; 4: few seedlings emerged and/or very severe stunting; 3: moderate reduction in stand and/or moderate stunting.; 2: very slight reduction in stand and/or slight stunting; 1: no injury, seedlings appear no different with respect to stand or growth than untreated controls; settings: Table II; ten to twelve days after application
How it was run: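 Compounds formulated in acetone with alkylphenoxyethanol surfactant and diluted in water to ppm test levels. Perennial rye grass seed-soil mixtures potted and drenched with 25 mL formulation about 2 h after planting, in the greenhouse. Controls received solvent and emulsifier without compound, and pre-emergent effects were rated on a scale.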

Tomato = experiment: Post-emergent herbicidal test, tomato; format: in vivo; set-up: key: 1: no perceptible injury; 2: intermediate degrees of injury; 3: intermediate degrees of injury; 4: intermediate degrees of injury; 5: the plant was dead; settings: Table II; 2500 parts per million, after ten days
How it was run: as §1

Mustard = experiment: Preliminary herbicide seed germination test (pre-emergent), mustard; format: in vivo, Brassica pincea var. foliosa (Florida broadleaf); set-up: key: 5: no seedling emerged; 4: few seedlings emerged and/or very severe stunting; 3: moderate reduction in stand and/or moderate stunting.; 2: very slight reduction in stand and/or slight stunting; 1: no injury, seedlings appear no different with respect to stand or growth than untreated controls; settings: Table II; ten to twelve days after application
How it was run: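 Stock suspension (0.5% w/w compound in acetone with alkylphenoxyethanol surfactant, emulsified in water) diluted with water to test concentration; 25 mL applied pre-emergence to greenhouse pots of mustard seed–soil mixture ~2 h after planting. Solvent/emulsifier-only controls; injury rated visually.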

Crabgrass = experiment: Preliminary herbicide seed germination test (pre-emergent), crabgrass; format: in vivo, Digitaria sanguinalis; set-up: key: 5: no seedling emerged; 4: few seedlings emerged and/or very severe stunting; 3: moderate reduction in stand and/or moderate stunting.; 2: very slight reduction in stand and/or slight stunting; 1: no injury, seedlings appear no different with respect to stand or growth than untreated controls; settings: Table II; ten to twelve days after application
How it was run: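 Crabgrass (Digitaria sanguinalis) seed-soil mixtures in pots were drenched about 2 h after planting with 25 mL of compound suspension, diluted in water from an acetone/alkylphenoxyethanol-emulsified stock. Each compound was tested at the same ppm concentration. Solvent-emulsifier blanks served as controls; effects were rated visually.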

[1] = system: two-spotted mite (adults and nymphal stages); experiment: Mite Foliage Spray Test (adults and nymphs); format: in vivo, Tetranychus urticae (Koch); set-up: key to Miticidal, Adult: A: Excellent Control; B: Partial Control; No Control; settings: Table II; mortality count after four days
How it was run: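 Adult and nymphal mites on potted bean plants, sprayed to run-off (100-110 ml at 40 psi, 30 s) with aqueous dilutions of acetone/alkylphenoxyethanol-emulsified compound; solvent-emulsifier blank as control. Held 4 days at 80±5° F, 50±5% RH, then motile forms counted (living = moves on prodding); values are ppm for 50% kill.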

Corn = experiment: Post-emergent herbicidal test, corn; format: in vivo; set-up: key: 1: no perceptible injury; 2: intermediate degrees of injury; 3: intermediate degrees of injury; 4: intermediate degrees of injury; 5: the plant was dead; settings: Table II; 2500 parts per million, after ten days
How it was run: as §1

| Compound | Post-emergent Herbicidal, Cotton (Cotton) | Post-emergent Herbicidal, Soybean (Soybean) | Pre-emergent Herbicidal, Rye (Perennial rye grass) | Post-emergent Herbicidal, Tomato (Tomato) | Pre-emergent Herbicidal, Mustard (Mustard) | Pre-emergent Herbicidal, Crabgrass (Crabgrass) | Miticidal, Adult [1] | Post-emergent Herbicidal, Corn (Corn) |
| --- | --- | --- | --- | --- | --- | --- | --- | --- |
| Cc1ccc(C2=C(OC(=O)c3ccccc3)CCC2=O)c(C)c1 [Compound 10] | 1 | 1 | 3 | 1 | 1 | 2 | C | 3 |
| CCCCCCCCCC(=O)OC1=C(c2cc(C)ccc2C)C(=O)C2CCCCC12 (stereo not shown) [Compound 32] | 1 | 1 | 1 | 1 | 1 | 1 | A | 2 |
